Structures are written as SMILES.

The first assay concerns NCI-H1581 cells. Put plainly: Cell proliferation assay on NCI-H1581 (Table 7). The note with it: Homo sapiens, NCI-H1581, read-out: IC50(nM) value of compounds on NCI-H1581 cells. In kind it is cell-based, human. The source says:
Test method: adding the appropriate volume of whole medium and the cells was suspended.
In general, IC50 refers to the point on the concentration scale where inhibition reaches its midpoint. In the case of `COc1cc(OC)c(Cl)c(-c2cc3cnc(Nc4ccc(N5CCN6CCC[C@H]6C5)cc4)nc3n3cnnc23)c1` [Compound 25, (S)-6-(2-chloro-3,5-dimethoxyphenyl)-N-(4-(hexahydropyrrolo[1,2-a]pyrazin-2(1H)-yl)phenyl)-[1,2,4]triazolo[4′,3′:1,6]pyrido[2,3-d]pyrimidin-2-amine], the IC50 was in the range of 1 to 10 nM.

As to `COc1cc(OC)c(Cl)c(-c2cc3cnc(Nc4ccc(OCCN5CCCC5)cc4)nc3n3cnnc23)c1` [Compound 28, 6-(2-chloro-3,5-dimethoxyphenyl)-N-(4-(2-(pyrrolidin-1-yl)ethoxy)phenyl)-[1,2,4]triazolo[4′,3′:1,6]pyrido[2,3-d]pyrimidin-2-amine], the IC50 stood at 2.9 nM. Take `COc1cc(OC)c(Cl)c(-c2cc3cnc(Nc4ccc(CN5CCOCC5)cc4)nc3n3cnnc23)c1` [Compound 45, 6-(2-chloro-3,5-dimethoxyphenyl)-N-(4-(morpholinomethyl)phenyl)-[1,2,4]triazolo[4′,3′:1,6]pyrido[2,3-d]pyrimidin-2-amine]: the IC50 stood at 0.9 nM. On the same count and under the same terms, under `COc1cc(OC)c(Cl)c(-c2cc3cnc(Nc4ccc(C(=O)N5C[C@@H](C)N[C@@H](C)C5)cc4)nc3n3cnnc23)c1` [Compound 59, (4-((6-(2-chloro-3,5-dimethoxyphenyl)-[1,2,4]triazolo[4′,3′:1,6]pyrido[2,3-d]pyrimidin-2-yl)amino)phenyl)((3 S,5R)-3,5-dimethylpiperazin-1-yl)methanone] stands 1.8 nM; under `CCN1CCC(c2ccc(Nc3ncc4cc(-c5cc6[nH]c(C)nc6cc5Cl)c5nncn5c4n3)cc2)CC1` [Compound 79, 6-(5-chloro-2-methyl-1H-benzo[d]imidazol-6-yl)-N-(4-(1-ethylpiperidin-4-yl)phenyl)-[1,2,4]triazolo[4′,3′:1,6]pyrido[2,3-d]pyrimidin-2-amine], 11.5 nM.

The assay is the same for the next values; noted with them: Homo sapiens, NCI-H1581; CellTiter 96 AQueous (144 hrs) or CellTiter Glo (96 hrs); class symbols; read-out: IC50(nM) value of compounds on NCI-H1581 cells.
Regarding `COc1cc(OC)c(Cl)c(-c2cc3cnc(Nc4ccc(N5CCN(C(C)C)CC5)cc4)nc3n3cnnc23)c1` [Compound 11, 6-(2-chloro-3,5-dimethoxyphenyl)-N-(4-(4-isopropylpiperazin-1-yl)phenyl)-[1,2,4]triazolo[4′,3′:1,6]pyrido[2,3-d]pyrimidin-2-amine], the IC50 is < 1 nM. On the same count and under the same terms, to `COc1cc(OC)c(Cl)c(-c2cc3cnc(Nc4ccc(N5CCN(C6COC6)CC5)cc4)nc3n3cnnc23)c1` [Compound 13, 6-(2-chloro-3,5-dimethoxyphenyl)-N-(4-(4-(oxetan-3-yl)piperazin-1-yl)phenyl)-[1,2,4]triazolo[4′,3′:1,6]pyrido[2,3-d]pyrimidin-2-amine] belongs 1 to 10 nM. On the same count and under the same terms, to `COc1cc(OC)c(Cl)c(-c2cc3cnc(Nc4ccc(N5CCC(N(C)C)CC5)cc4)nc3n3cnnc23)c1` [Compound 14, 6-(2-chloro-3,5-dimethoxyphenyl)-N-(4-(4-(dimethylamino)piperidin-1-yl)phenyl)[1,2,4]triazolo[4′,3′:1,6]pyrido[2,3-d]pyrimidin-2-amine] belongs < 1 nM; to `COc1cc(OC)c(Cl)c(-c2cc3cnc(Nc4ccc(N5CCN(C)CC5)cc4)nc3n3cnnc23)c1` [Compound 15, 6-(2-chloro-3,5-dimethoxyphenyl)-N-(4-(4-methylpiperazin-1-yl)phenyl)-[1,2,4]triazolo[4′,3′:1,6]pyrido[2,3-d]pyrimidin-2-amine], < 1 nM. On the same count and under the same terms, under `COc1cc(OC)c(Cl)c(-c2cc3cnc(Nc4ccc(N5CCN(C)CC5)cn4)nc3n3cnnc23)c1` [Compound 16, 6-(2-chloro-3,5-dimethoxyphenyl)-N-(5-(4-methylpiperazin-1-yl)pyridin-2-yl)-[1,2,4]triazolo[4′,3′:1,6]pyrido[2,3-d]pyrimidin-2-amine] stands 10 to 100 nM.

In the case of `COc1cc(OC)c(Cl)c(-c2cc3cnc(Nc4ccc(N5CCN(C6CCN(C)CC6)CC5)cc4)nc3n3cnnc23)c1` [Compound 22, 6-(2-chloro-3,5-dimethoxyphenyl)-N-(4-(4-(1-methylpiperidin-4-yl)piperazin-1-yl)phenyl)-[1,2,4]triazolo[4′,3′:1,6]pyrido[2,3-d]pyrimidin-2-amine], the IC50 is 1 to 10 nM.

Consider `COc1cc(OC)c(Cl)c(-c2cc3cnc(Nc4ccc(OCCN5CCOCC5)cc4)nc3n3cnnc23)c1` [Compound 33, 6-(2-chloro-3,5-dimethoxyphenyl)-N-(4-(2-morpholinoethoxy)phenyl)-[1,2,4]triazolo[4′,3′:1,6]pyrido[2,3-d]pyrimidin-2-amine], for which the IC50 lay within 1 to 10 nM. The same measure, in the same setting: under `COc1cc(OC)c(Cl)c(-c2cc3cnc(Nc4ccc(C5CCN(C)CC5)cc4)nc3n3cnnc23)c1` [Compound 37, 6-(2-chloro-3,5-dimethoxyphenyl)-N-(4-(1-methylpiperidin-4-yl)phenyl)-[1,2,4]triazolo[4′,3′:1,6]pyrido[2,3-d]pyrimidin-2-amine] stands 1 to 10 nM; under `COc1cc(OC)c(Cl)c(-c2cc3cnc(Nc4cccc(N5CCN6CCC[C@@H]6C5)c4)nc3n3cnnc23)c1` [Compound 38, (R)-6-(2-chloro-3,5-dimethoxyphenyl)-N-(3-(hexahydropyrrolo[1,2-a]pyrazin-2(1H)-yl)phenyl)-[1,2,4]triazolo[4′,3′:1,6]pyrido[2,3-d]pyrimidin-2-amine], 1 to 10 nM. The same measure, in the same setting: to `COc1cc(OC)c(Cl)c(-c2cc3cnc(Nc4ccc(N5CC(=O)N6CCC[C@@H]6C5)cc4)nc3n3cnnc23)c1` [Compound 40, (R)-2-(4-((6-(2-chloro-3,5-dimethoxyphenyl)-[1,2,4]triazolo[4′,3′:1,6]pyrido[2,3-d]pyrimidin-2-yl)amino)phenyl)hexahydropyrrolo[1,2-a]pyrazin-4(1H)-one] belongs > 100 nM. Turning to `CNC1CCN(c2ccc(Nc3ncc4cc(-c5cc(OC)cc(OC)c5Cl)c5nncn5c4n3)cc2)CC1` [Compound 49, 6-(2-chloro-3,5-dimethoxyphenyl)-N-(4-(4-(methylamino)piperidin-1-yl)phenyl)-[1,2,4]triazolo[4′,3′:1,6]pyrido[2,3-d]pyrimidin-2-amine], the IC50 is < 1 nM.

For `COc1cc(OC)c(Cl)c(-c2cc3cnc(Nc4ccc(N5C[C@@H](C)N[C@@H](C)C5)c(OC)c4)nc3n3cnnc23)c1` [Compound 55, 6-(2-chloro-3,5-dimethoxyphenyl)-N-(4-((3 S,5R)-3,5-dimethylpiperazin-1-yl)-3-methoxyphenyl)-[1,2,4]triazolo[4′,3′:1,6]pyrido[2,3-d]pyrimidin-2-amine], the IC50 is 1 to 10 nM. For `COc1cc(OC)c(Cl)c(-c2cc3cnc(Nc4ccc(C(=O)N5C[C@@H](C)N[C@@H](C)C5)cc4)nc3n3cnnc23)c1Cl` [Compound 60, (4-((6-(2,6-dichloro-3,5-dimethoxyphenyl)-[1,2,4]triazolo[4′,3′:1,6]pyrido[2,3-d]pyrimidin-2-yl)amino)phenyl)((3S,5R)-3,5-dimethylpiperazin-1-yl)methanone], the IC50 is < 1 nM. Consider `Cc1nc2ccc(-c3cc4cnc(Nc5ccc(N6CCOCC6)cc5)nc4n4cnnc34)c(Cl)c2[nH]1` [Compound 83, 6-(7-chloro-2-methyl-1H-benzo[d]imidazol-6-yl)-N-(4-morpholinophenyl)-[1,2,4]triazolo[4′,3′:1,6]pyrido[2,3-d]pyrimidin-2-amine], for which the IC50 was > 100 nM. For the compound `C=CC(=O)N1CCN(CCc2nc3c(-c4cc(OC)cc(OC)c4Cl)cc4cnc(NC)nc4n3n2)CC1` [Compound 116, 1-(4-(2-(4-(2-chloro-3,5-dimethoxyphenyl)-8-(methylamino)-[1,2,4]triazolo[1′,5′:1,6]pyrido[2,3-d]pyrimidin-2-yl)ethyl)piperazin-1-yl)prop-2-en-1-one], the IC50 lay within 10 to 100 nM. Still for that read-out and setting: to `C=CC(=O)N1CCN(Cc2nc3c(-c4cc(OC)cc(OC)c4Cl)cc4cnc(NC)nc4n3n2)CC1` [Compound 117, 1-(4-((4-(2-chloro-3,5-dimethoxyphenyl)-8-(methylamino)-[1,2,4]triazolo[1′,5′:1,6]pyrido[2,3-d]pyrimidin-2-yl)methyl)piperazin-1-yl)prop-2-en-1-one] belongs 10 to 100 nM; to `C=CC(=O)N1CCN(CCc2nc3c(-c4c(Cl)c(OC)cc(OC)c4Cl)cc4cnc(NC)nc4n3n2)CC1` [Compound 124, 1-(4-(2-(4-(2,6-dichloro-3,5-dimethoxyphenyl)-8-(methylamino)-[1,2,4]triazolo[1′,5′:1,6]pyrido[2,3-d]pyrimidin-2-yl)ethyl)piperazin-1-yl)prop-2-en-1-one], 1 to 10 nM. On the same count and under the same terms, under `C=CC(=O)N1C[C@@H](C)N(CCCc2nc3c(-c4c(Cl)c(OC)cc(OC)c4Cl)cc4cnc(NC)nc4n3n2)[C@@H](C)C1` [Compound 131, 1-((3S,5R)-4-(3-(4-(2,6-dichloro-3,5-dimethoxyphenyl)-8-(methylamino)-[1,2,4]triazolo[1′,5′:1,6]pyrido[2,3-d]pyrimidin-2-yl)propyl)-3,5-dimethylpiperazin-1-yl)prop-2-en-1-one] stands 10 to 100 nM. On the same count and under the same terms, to `C=CC(=O)N1CCN(CCCc2nc3c(-c4c(Cl)c(OC)cc(OC)c4Cl)cc4cnc(NCC(F)(F)F)nc4n3n2)CC1` [Compound 137, 1-(4-(3-(4-(2,6-dichloro-3,5-dimethoxyphenyl)-8-((2,2,2-trifluoroethyl)amino)-[1,2,4]triazolo[1′,5′:1,6]pyrido[2,3-d]pyrimidin-2-yl)propyl)piperazin-1-yl)prop-2-en-1-one] belongs 1 to 10 nM. In the case of `CNc1ncc2cc(-c3c(Cl)c(OC)cc(OC)c3Cl)c3nc(CCCN4CCN(C(=O)C(C#N)=CC(C)(C)C)CC4)nn3c2n1` [Compound 148, 2-(4-(3-(4-(2,6-dichloro-3,5-dimethoxyphenyl)-8-(methylamino)-[1,2,4]triazolo[1′,5′:1,6]pyrido[2,3-d]pyrimidin-2-yl)propyl)piperazine-1-carbonyl)-4,4-dimethylpent-2-enenitrile], the IC50 was > 100 nM.

The target in another assay is FGFR1 (Homo sapiens (Human), UniProt P11362). As to the kind of experiment: Kinase assay Method 1, mobility shift assay. The note with it: read-out: IC50(nM) value of compounds FGFR1; mobility shift assay, ATP at Km; class symbols.
Sequence of FGFR1 (P11362 22-822): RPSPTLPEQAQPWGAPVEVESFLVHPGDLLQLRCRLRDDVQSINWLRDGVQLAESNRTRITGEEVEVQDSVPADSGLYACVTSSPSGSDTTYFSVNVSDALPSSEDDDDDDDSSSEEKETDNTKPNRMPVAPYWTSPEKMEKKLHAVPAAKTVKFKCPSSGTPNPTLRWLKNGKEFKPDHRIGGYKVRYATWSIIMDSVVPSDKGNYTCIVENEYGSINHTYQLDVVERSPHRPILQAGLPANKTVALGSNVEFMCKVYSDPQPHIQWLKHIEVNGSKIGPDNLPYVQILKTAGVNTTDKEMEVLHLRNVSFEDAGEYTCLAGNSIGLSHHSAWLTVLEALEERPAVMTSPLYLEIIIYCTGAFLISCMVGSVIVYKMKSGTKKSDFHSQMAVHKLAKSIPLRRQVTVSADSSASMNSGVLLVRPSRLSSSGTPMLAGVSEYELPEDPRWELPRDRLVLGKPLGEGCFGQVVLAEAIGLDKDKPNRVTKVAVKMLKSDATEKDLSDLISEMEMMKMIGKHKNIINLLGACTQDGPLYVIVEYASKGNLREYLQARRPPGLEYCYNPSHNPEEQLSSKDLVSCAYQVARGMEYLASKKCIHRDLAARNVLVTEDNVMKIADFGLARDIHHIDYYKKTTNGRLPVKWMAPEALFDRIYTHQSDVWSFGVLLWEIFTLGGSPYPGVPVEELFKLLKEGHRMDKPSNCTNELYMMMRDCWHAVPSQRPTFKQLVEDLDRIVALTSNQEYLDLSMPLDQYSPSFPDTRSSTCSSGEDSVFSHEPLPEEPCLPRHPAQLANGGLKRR
Protocol: Method 1: The inhibitory activity of some compounds of the present disclosure against FGFR1, FGFR2, FGFR3, FGFR4, KDR was tested by mobility shift assay (concentration of ATP is Km value).
Preparing of compounds: dilute test compounds to specific concentration using 100% DMSO
Regarding `COc1cc(OC)c(Cl)c(-c2cc3cnc(Nc4ccc(N5CCN(C(C)C)CC5)cc4)nc3n3cnnc23)c1` [Compound 11, 6-(2-chloro-3,5-dimethoxyphenyl)-N-(4-(4-isopropylpiperazin-1-yl)phenyl)-[1,2,4]triazolo[4′,3′:1,6]pyrido[2,3-d]pyrimidin-2-amine], the IC50 was < 1 nM. Still for that read-out and setting: under `COc1cc(OC)c(Cl)c(-c2cc3cnc(Nc4ccc(N5CCN(C6COC6)CC5)cc4)nc3n3cnnc23)c1` [Compound 13, 6-(2-chloro-3,5-dimethoxyphenyl)-N-(4-(4-(oxetan-3-yl)piperazin-1-yl)phenyl)-[1,2,4]triazolo[4′,3′:1,6]pyrido[2,3-d]pyrimidin-2-amine] stands < 1 nM; under `COc1cc(OC)c(Cl)c(-c2cc3cnc(Nc4ccc(N5CCC(N(C)C)CC5)cc4)nc3n3cnnc23)c1` [Compound 14, 6-(2-chloro-3,5-dimethoxyphenyl)-N-(4-(4-(dimethylamino)piperidin-1-yl)phenyl)[1,2,4]triazolo[4′,3′:1,6]pyrido[2,3-d]pyrimidin-2-amine], < 1 nM; under `COc1cc(OC)c(Cl)c(-c2cc3cnc(Nc4ccc(N5CCN(C)CC5)cc4)nc3n3cnnc23)c1` [Compound 15, 6-(2-chloro-3,5-dimethoxyphenyl)-N-(4-(4-methylpiperazin-1-yl)phenyl)-[1,2,4]triazolo[4′,3′:1,6]pyrido[2,3-d]pyrimidin-2-amine], < 1 nM.

As for `COc1cc(OC)c(Cl)c(-c2cc3cnc(Nc4ccc(N5CCN(C)CC5)cn4)nc3n3cnnc23)c1` [Compound 16, 6-(2-chloro-3,5-dimethoxyphenyl)-N-(5-(4-methylpiperazin-1-yl)pyridin-2-yl)-[1,2,4]triazolo[4′,3′:1,6]pyrido[2,3-d]pyrimidin-2-amine], the IC50 was > 10 nM.
